Values joined by “and” are separate entries in the source; they are usually repeats but may differ in a detail not shown here. Equal values may be shown once.

One series deals with SARS-CoV-2. Type of series: cell-based.
For series [1] the following is noted: fraction of heparin's anticoagulant properties; cited from earlier work.
The conditions of series [2]: high doses for extended periods; cited from earlier work.
For series [3] the following is noted: administered orally, intravenously or subcutaneously; cited from earlier work.

As to pentosan polysulfate [PPS], in the series on SARS-CoV-2, the “reduction in virus infectivity (TCID50/mL)” value is “almost four orders of magnitude reduction” and the “virus replication in Calu3 cells” value was “inhibited much more strongly”. In addition, the “anticoagulant properties relative to heparin” value in series [1] was “about 1/15 and 1/15”. Besides, the side effects entry in series [2] is listed as “only limited side effects”. For the same substance, the bioavailability entry in series [3] was “bioavailable”.

Values taken from patent US12268707B2, “Treatment for coronavirus infection and associated cytokine toxicity” (priority 2020, dated 2025).
